How the values were obtained:
[1] = test system: NCI-H1993; assay: Growth inhibition of wild type human NCI-H1993 cells incubated for 3 days by cell titer-glo luminescent cell viability assay; type: functional; details: NCI-H1993, 72 h
[2] = test system: NCI-H1993; assay: Growth inhibition of CRISPR/Cas9 modified human NCI-H1993 cells harboring cMET D1228V mutant incubated for 3 days by cell titer-glo luminescent cell viability assay; type: functional; details: NCI-H1993, 72 h
[3] = biological target: T1, Hepatocyte growth factor receptor (Homo sapiens, UniProt P08581); assay: Inhibition of c-Met phosphorylation at Tyr 1234/Tyr1235 residues in human NCI-H1993 cells incubated for 4 hrs by HTRF assay; type: cell-based
[4] = biological target: T2, Hepatocyte growth factor receptor (Homo sapiens, UniProt P08581, D1228V); assay: Inhibition of N-terminal NH-tagged and avi-tagged dephosphorylated c-MET D1228V mutant (956 to 1390 residues) (unknown origin) expressed in sf21 cells using poly (Glu,Tyr) as substrate measured after 60 mins by ADP-Glo kinase assay
[5] = biological target: T1, Hepatocyte growth factor receptor; assay: Inhibition of wild type N-terminal NH-tagged and avi-tagged dephosphorylated c-MET (956 to 1390 residues) (unknown origin) expressed in sf21 cells using poly (Glu,Tyr) as substrate measured after 60 mins by ADP-Glo kinase assay
[6] = test system: NCI-H1993; assay: Resistance index, ratio of GI50 for CRISPR/Cas9 modified human NCI-H1993 cells harboring cMET D1228V mutant to GI50 for wild type human NCI-H1993 cells by cell-titer glo luminescent cell viability assay; type: functional
[7] = biological target: T2, Hepatocyte growth factor receptor; assay: Inhibition of c-MET D1228V mutant phosphorylation at Tyr1234/Tyr1235 residues in CRISPR/Cas9 modified human NCI-H1993 cells incubated for 4 hrs by HTRF assay; type: cell-based

GI50 [1]	GI50 [2]	IC50 [3]	IC50 [4]	IC50 [5]	IC50 [7]	Compound	RatioGI50 [6]
9.33 nM	8320 nM	2 nM	676 nM	< 2.51 nM	> 31600 nM	C[C@@H](c1ccc2nccn2c1)n1nnc2ncc(-c3cnn(C)c3)nc21 [SAVOLITINIB]	> 800
		12.3 to 214 nM	< 2.51 nM	< 2.51 nM	12.3 to 214 nM	CCOc1ccn(-c2ccc(F)cc2)c(=O)c1C(=O)Nc1ccc(Oc2ccnc(N)c2Cl)c(F)c1 [BMS-777607]	
61.7 nM	52.5 nM					COc1cc2c(Oc3ccc(NC(=O)C4(C(=O)Nc5ccc(F)cc5)CC4)cc3F)ccnc2cc1OCCCN1CCOCC1 [FORETINIB]	
